According to a melting point compilation (Tetko et al.; mined from patent text by program, amines drawn as free bases though some values may be those of a salt):

Row | melting point [°C] | Compound
1 | 159 to 160 | CCN(CC)CCn1c(=O)c2cc(OC)c(OC)cc2c2cnc3cc4c(cc3c21)OCO4
2 | 123 to 125 | COC(=O)CCn1cc(-c2cccnc2)c2cc([N+](=O)[O-])ccc21
3 | 127 to 128 | COc1cc(C)c(C)c2c1CCC2=O
4 | 37 | CCOc1ccc(CCc2ccc(OC(F)F)cc2)cc1
5 | 161 | CCOC(=O)c1ccc(C(=O)C2=NS(=O)(=O)c3ccccc3C2=O)cc1
6 | 171 to 173 | Cc1ccccc1NS(=O)(=O)c1cc([N+](=O)[O-])ccc1C
7 | 233 to 235 | CCOC(=O)C1=C(O)CCn2c1nc1ccccc12
8 | 135 to 140 | CSc1cc(C(=O)O)cc(C(F)(F)F)c1
9 | 250 to 251 | CC(C)c1c(Cl)[nH]c(=O)[nH]c1=O
10 | 185 to 186 | CON=C(C(=O)O)c1nsc(NC=O)n1
11 | 115 to 116 | Cc1cc(=O)c(OCc2ccccc2)c(CO)o1
12 | 158 to 159 | CC(C)(C)OC(=O)N[C@H](Cc1ccc(C(F)(F)F)cc1)[C@@H](O)c1ccc(F)cc1 (racemic)
13 | 62 to 66 | CCCCCCC(=O)N[C@H](CO)C(=O)OCc1ccccc1
14 | 238 to 240 | COc1ccccc1C=Cc1nc2c(c(=O)n(C)c(=O)n2C)n1C
15 | 156 to 159 | O=c1cc(-c2ccncc2)nc2n1CCOCC2
16 | 210 | CNC(=O)c1c(N)n(C2CCCC2)c2nc(C#CC(C)(O)CO)ccc2c1=O (centres undefined)
17 | 176 to 178 | O=C(O)CCC(Cc1ccc(Cl)cc1)(C(=O)C=Cc1ccc(Cl)cc1)c1ccccc1 (centres undefined)
18 | 177 to 179 | CC(C)=CCOc1ccc(C(=O)C=Cc2cccnc2)c(O)c1
19 | 149 to 151 | O=C(c1ccccc1)N1CCC(c2nn(-c3ccccc3)c3cc(F)ccc23)CC1
20 | 180 to 182 | O=c1[nH][nH]c(=O)n1-c1c(F)c(F)c(F)c(F)c1F
21 | 260 | COc1ccccc1C1C2CCC(C2)C12CCC(=O)N2 (centres undefined)
22 | 125 to 135 | Cc1noc(NS(=O)(=O)c2ccccc2-c2ccc(-c3ncco3)cc2CN(C)C(=O)c2cccc(F)c2)c1C
23 | 273 to 275 | Cc1nc(-n2cnn(CC3CC3(F)F)c2=O)sc1C(N)=O (centres undefined)
24 | 113 to 114 | CN1CC(=O)Nc2ccccc2C1
25 | 88 to 90 | O=C(C(=O)c1cccc(Br)c1)c1ccncc1
26 | 108 | Cc1cc(-n2ccnc2)c2cccc(OCc3c(Cl)ccc(S(=O)(=O)N4CCC[C@H]4C(=O)NC4CC4)c3Cl)c2n1
27 | 189 | O=C(C=Cc1ccc(O)cc1)N1CCc2c([nH]c3ccccc23)C1c1ccc2c(c1)CCO2 (centres undefined)

Row | melting point [°C] | Compound
28 | 95 | Cc1noc(-c2c(C)ncn2C)n1
29 | 291 to 292 | O=c1[nH]c2cc3c(cc2nc1-c1ccccc1)OC(F)(F)O3
30 | 152 to 156 | N#CN(CCN1CCC(C(=O)c2ccc(F)cc2)CC1)C(=N)NCCN1CCC(C(=O)c2ccc(F)cc2)CC1
31 | 82 | CN1CCC(OC(c2cccc(C#CCCCN)c2)c2nc3ccccc3[nH]2)CC1 (centres undefined)
32 | 243 to 245 | NC(=O)c1nnn(Cc2c(Cl)cccc2Cl)c1N
33 | 180 to 181 | Cc1[nH]c(=O)sc1C#N
34 | 146 to 149 | CC1CCCN(C2c3cc4nonc4cc3OC(C)(C)C2O)C1=O (centres undefined)
35 | 190 | O=C(CCC#Cc1ccccn1)Nc1ccc(F)cc1
36 | 133 to 134 | Cc1oc(-c2ccccc2)nc1COc1ccc(C=CC=O)cc1F
37 | > 300 | O=C(NCCc1ccn(-c2cc3nc(C(=O)O)c(=O)[nH]c3cc2F)c1)Nc1ccc(C(=O)O)cc1
38 | 150 to 152 | CC[C@H](Cc1sccc1Cl)Nc1ccnc(O)c1[N+](=O)[O-]
39 | 196 to 197 | CC(C)(C)C(NC(=O)c1ccc(Cl)cc1)NC(=NS(=O)(=O)c1ccccc1)Nc1cccnc1 (centres undefined)
40 | 96 to 98 | COC(=O)c1c(C)nc(C)c(C(=O)Cl)c1-c1ccccc1[N+](=O)[O-]
41 | 209 to 210 | CCOC(=O)c1cn(C2CC2)c2c(C#N)c(N3C[C@@H]4CCCN[C@@H]4C3)c(F)cc2c1=O
42 | 102 to 104 | CC=CCSc1cc(C(=O)O)cc(N)c1-c1ccccc1
43 | 65 to 66 | C=CCNc1nc(NCCCCCCCCC)c2scc(C)c2n1
44 | 138 to 140 | CC(C)(C)OC(=O)N1CC(CCl)c2c1ccc1ccc(C#N)cc21 (centres undefined)
45 | 149 to 150 | CCC(Oc1ccc(F)cc1)C(=O)OC1CC(O)C=C2C=CC(C)C(CCC3CC(O)CC(=O)O3)C21 (mixture of isomers)
46 | 142 | N#Cc1cccc(C(=O)c2ccc(Cl)cc2)c1
47 | 116 to 117 | Cc1cccc2c1NC(=O)C(CCCN1CCN(c3ccc(F)cc3)CC1)S2 (centres undefined)
48 | 160 to 162 | Cc1ccc2c(-c3ccoc3)cc(=O)oc2c1
49 | 200 to 202 | CS(=O)(=O)c1ccc(N2CC(O)(C(F)(F)F)N=C2c2ccc3c(c2)OCO3)cc1 (centres undefined)
50 | 64 | CCCCc1nc(SC)c[nH]1
51 | 242 to 243 | CN(c1cccc2cc(-c3ncc(CS(C)(=O)=O)s3)[nH]c12)S(=O)(=O)c1cccs1
52 | 200 to 202 | Cc1ccc(Cl)cc1NC(=O)NCC1(c2ccccc2)CCCCC1
53 | 109 | Clc1nc(-c2nnc(Oc3ccccc3)o2)[nH]c1Cl

More lines, now with the values behind:

Row | Compound | melting point [°C]
54 | O=C(Oc1ccc2c(c1Cl)Sc1ccccc1N2)c1ccccc1 | 203
55 | O=C(O)Cc1ccc(N2C(=O)C3CCCCC3C2=O)cc1 (centres undefined) | 219 to 221
56 | N#Cc1cc(I)c(N)c(C(F)(F)F)c1 | 86 to 88
57 | CC(O)C(NC(=O)OC(C)(C)C)C(=O)OCC(=O)c1ccccc1 (centres undefined) | 114
58 | COC(=O)c1scc2nc(SCc3cc(OC)ccn3)[nH]c12 | 156 to 160
59 | CC(C)(C)OC(=O)c1cccc(C#N)n1 | 156 to 157
60 | CNc1nc(-c2ccccc2)c(-c2nc3ccccc3c(=O)n2-c2cccc(C)c2)s1 | 186 to 187
61 | CCCCCCCCn1c(C)c(C(=O)c2ccccc2C(=O)O)c2ccccc21 | 121 to 123
62 | O=C1Nc2ccccc2N(C(=O)CN2CCCCC2CN2CCCCC2)c2cscc21 (centres undefined) | 190 to 195
63 | O=C(N[C@H]1CC[C@H](CCN2CCC(c3cccc4c3CCO4)CC2)CC1)c1ccc(-n2cccn2)cc1 | 258
64 | Nc1ccc(-n2cnn(-c3ccc(OC(F)(F)F)cc3)c2=O)cc1 | 115 to 120
65 | CN(CC(N)=O)C1Cc2ccccc2C1 | 122 to 123
66 | COC(=O)CCCCc1ccc(CN2CCN(c3ccncc3)CC2)cc1 | 53 to 54
67 | COc1ccc(COc2cccnc2N)c(F)c1 | 135 to 138
68 | CN1CC(C(=O)COC(=O)C(C)(C)C)CC2c3cccc4[nH]cc(c34)CC21 (centres undefined) | 155 to 156
69 | c1ccc(-c2cn3c(nc4ccccc43)s2)nc1 | 222 to 224
70 | CCN1CCC2(c3cccc(O)c3)CC(Cc3ccccc3)=CCC2C1 (centres undefined) | 160 to 162
71 | Nc1c(Cl)cc2c3c(cccc13)C(=O)N(O)C2=O | 354 to 359
72 | O=S(=O)(Oc1ccc2sccc2c1)c1ccccc1 | 80 to 81
73 | CCNC(=O)Nc1nc2cc(-c3cccnc3)cc(-c3cccc(OC)n3)c2s1 | 300
74 | CCNC(=O)c1c([Si](C)(C)C)ccc(C(=O)OC)c1Cl | 103 to 104
75 | COc1ccc(C(=O)Nc2cc(C(F)(F)F)c(Br)cc2S(N)(=O)=O)cc1 | 321
76 | CCC(O)(c1ccc(OCCCN2CCCCC2)cc1)c1cccc(C(F)(F)F)c1 (centres undefined) | 124 to 125
77 | CC(Nc1ccc(F)c(F)c1F)C(=O)O (centres undefined) | 114 to 119
78 | CCOC(=O)c1ncn2c1[C@@H]1CCCN1C(=O)c1sccc1-2 | 212 to 213
79 | COC(=O)c1ccc(CCn2ccn(C3CCc4ccccc4C3)c2=S)cc1 (centres undefined) | 159 to 161

Row | Compound | melting point [°C]
80 | CCCn1c(=O)c2ccc(NC(=O)CC3CCCC3)cc2n1Cc1ccc(C(=O)OC)cc1OC | 74.5 to 77
81 | Sc1nnc2c3ccccc3cnn12 | 270 to 280
82 | CCN1CCC(=O)N(c2ccccc2C(C)C)C1=S | 118 to 122
83 | Cc1csc2[nH]c(=O)c(=O)[nH]c12 | > 320
84 | CCOC(=O)C(=Cc1ccccc1)S(=O)(=O)NC(=O)Nc1nc(OC)cc(OC)n1 | 140 to 143
85 | CC(=O)Nc1cc(C)c(C)cc1OC(C)=O | 156 to 158
86 | O=C(Cn1nnc2ccccc21)Nc1ccc(-n2nc(C3CC3)cc2C2CC2)cc1 | 216 to 220
87 | Cc1cc(C)c(C=NNC(=O)c2ccc(O)cc2)[nH]1 | 261
88 | O=C(O)CCOC(c1ccccc1)(c1ccccc1)c1ccccc1 | 159 to 161
89 | CCNc1nc2ccc(CCc3ccc(CN(C)C)o3)cc2o1 | 72 to 73
90 | COC(=O)C(C)(C)Oc1ccc2c(=O)n(CC(C)C)c(CNC(=O)OC(C)(C)C)c(-c3ccccc3)c2c1 | 207 to 209
91 | CC(=O)OC1CSC(Oc2ccc(C)nc2-c2ccncc2)C(OC(C)=O)C1OC(C)=O (centres undefined) | 140 to 144
92 | Fc1cccc(NC2CN([C@H]3CC[C@@H](c4c[nH]c5ccc(F)cc54)CC3)C2)c1 | 67 to 70
93 | CCOC(=O)NC(=O)N1CC1C#N (centres undefined) | 108 to 110
94 | O=CNc1nc2ccc([N+](=O)[O-])cc2s1 | 248 to 251
95 | Cn1nc(Br)c([N+](=O)[O-])c1Br | 154
96 | COc1ccc(CCNC(=S)Nc2nc3ccccc3[nH]2)cc1 | 166 to 172
97 | O=C(O)c1c2nc3ccccc3c-2[nH]c2ccc(F)cc12 | > 243
98 | COc1cc(O)cc2c1C(Br)=C(c1ccc(O)cc1)C2=O | 210
99 | CSc1ccc(-c2c(Br)cnn2-c2ccc(F)cc2)cc1 | 85 to 87
100 | Cc1ccc(S(=O)(=O)n2ccc3c(CO)cccc32)cc1 | 125 to 126
101 | N#Cc1ccc2c(c1)CCN(C1CCC3(CC1)OCCO3)C2 | 127
102 | Fc1ccc2c(C3CCN(C(=S)Nc4ccccc4)CC3)nn(-c3ccccc3)c2c1 | 151 to 153
103 | CC(C)NCC(O)COc1ccc(OCCn2cccn2)cc1 (centres undefined) | 37 to 39
104 | O=C(CCC(C(=O)O)N1C(=O)c2ccccc2C1=O)OCc1ccccc1 (centres undefined) | 96 to 98
